The numbers were not newly measured in patent US20230364078A1, “METHOD OF PREPARING NANOPARTICLES COMPRISING POORLY WATER SOLUBLE DRUGS FOR TREATING HEPATITIS” (priority 2022, published 2023), which cites them from elsewhere.

Molecules are shown by their SMILES.

The conditions of data set [1]: non-nanosized drug.
Details of data set [2]: key: Class 1 has high solubility and permeability; Class 2 has low solubility but good permeability; Class 3 has high solubility but low permeability; Class 4 has low solubility and permeability. The settings on record: water solubility and intestinal permeability.
For data set [3] the following is noted: solvent ethanol.

Turning to `C=C[C@@H]1C[C@]1(NC(=O)[C@@H]1C[C@@H]2CN1C(=O)[C@H](C(C)(C)C)NC(=O)O[C@@H]1C[C@H]1CCCCCc1nc3ccc(OC)cc3nc1O2)C(=O)NS(=O)(=O)C1CC1` [Formula 2, Grazoprevir], the solubility in water entry in data set [1] was “very little soluble in water”. Also, the BCS class in data set [2] was 2. In addition, in data set [3], the solubility to ethanol was 15 mg/mL.
On to `COC[C@H]1C[C@@H](c2nc(-c3ccc4c(c3)COc3cc5c(ccc6nc([C@@H]7CC[C@H](C)N7C(=O)[C@@H](NC(=O)OC)C(C)C)[nH]c65)cc3-4)c[nH]2)N(C(=O)[C@H](NC(=O)OC)c2ccccc2)C1` [Formula 4, Velpatasvir], for which, in data set [2], the BCS class is given as 4. The solubility to ethanol in data set [3] was 30 mg/mL.
Regarding `COC(=O)N[C@H](C(=O)N1CCC[C@H]1c1ncc(-c2ccc(-c3ccc(-c4cnc([C@@H]5CCCN5C(=O)[C@@H](NC(=O)OC)C(C)C)[nH]4)cc3)cc2)[nH]1)C(C)C` [Formula 1, Daclatasvir], the solubility in water result in data set [1] was “insoluble in water”. Also, the BCS class in data set [2] is 2. The solubility to ethanol in data set [3] was 148 mg/mL.
As to `C=C[C@@H]1C[C@]1(NC(=O)[C@@H]1C[C@@H](Oc2ncc(OC)c3ccc(Cl)cc23)CN1C(=O)[C@@H](NC(=O)OC(C)(C)C)C(C)(C)C)C(=O)NS(=O)(=O)C1CC1` [Formula 3, Asunaprevir], the solubility in water result in data set [1] was “very little soluble in water”. Further, in data set [2], the BCS class is given as 2. In addition, in data set [3], the solubility to ethanol is 100 mg/mL.
